System: WBCs from whole blood
Assay: DLD assay: WBC biophysical profiling (size Dapp, deformability CDMdot) after in vitro activation of whole blood
Format: cell-based
Settings: for WBC Dapp (average of L and L^-1 DLD assays): 2 hours incubation, undiluted whole blood at 37° C., 2.5 μL/min, n=5, healthy baseline 9.7±0.1 μm; for increase in WBC Dapp: 2 hours, versus healthy baseline
Description: The open reservoirs 102A, 102B and 102C facilitate easy sample loading, sample resuspension to prevent settling of cells and washing the reservoir to reuse the device. The required loaded volume per run is 10 μL and the reservoir can hold up to 25 μL of blood. As the fluid is withdrawn, the sample flows through a region comprising 21 DLD device segments sandwiched between two 1× phosphate-buffered saline (PBS) buffer streams (see Table 2). Each segment comprises an array of pillars and has a specific DLD critical cut-off size (Dc) determined by the empirical Equation (1): […]
where G is the regular spacing between pillars and θ is the gradient of the pillar array. This design is known as a chirped DLD array where each downstream segment has an increasing pillar row-shift gradient corresponding to an increasing Dc ranging from 6.0 to 16.0 μm in steps of 0.5 μm (see Methods). Immune cells flowing through the device 100 are deflected laterally only within DLD segments where cell sizes are larger than Dc; the cells therefore exit the device 100 at defined lateral positions depicted in the output region shown in FIG. 1A. The output of the sorting forms a spectrum in its size distribution (i.e., a biophysical parameter based on a distribution profile of the cells sorted by the array of pillars).
To evaluate the biophysical combinatorial immune profiling potential of DLD assay, a single biophysical size and deformability parameter is determined. For size parameters, the average Dapp for L and L^−1 assays was quantified at 2.5 μL/min, while a single cell deformability parameter (CDMdot) was emphasized by taking the product of the CDML and CDML^−1 measurements. Performing a product amplifies the deformability differences compared to CDML and CDML^−1 measurements individually (see FIG. 8). By combining the measurements of two DLD devices, a unique leukocyte biophysical fingerprint as a profiling tool to measure different states of WBC from whole blood in real-time was envisioned (see FIG. 1B).
Direct sample measurements enable the study of WBC biophysical profiles in different health states of an individual for healthy donors, patients admitted to the ED without signs of infection (ED Control), and patients with clear signs of infection and fulfilling at least two SIRS criteria (ED≥2 SIRS) (See Table 3). The second group are tests performed on blood, which have undergone external or in vitro test conditions to activate the WBCs. These include 5 ng/ml lipopolysaccharide (LPS), which mimics the bacteria coat that would trigger inflammation and phorbol 12-myristate 13-acetate (PMA) at 100 and 1000 nM, a known activator of WBCs. […]

CCCCCCCCCCCCCC(=O)O[C@@H]1[C@@H](C)[C@@]2(O)[C@@H](C=C(CO)C[C@]3(O)C(=O)C(C)=C[C@@H]23)[C@@H]2C(C)(C)[C@]12OC(C)=O [PMA, phorbol 12-myristate 13-acetate]
WBC Dapp (average of L and L^-1 DLD assays) (PMA 100 nM): 12.6±0.8 μm | increase in WBC Dapp (PMA 100 nM): 30% | WBC Dapp (average of L and L^-1 DLD assays) (PMA 1000 nM): 13.9±0.7 μm | increase in WBC Dapp (PMA 1000 nM): 43%
